The results in this text go back to US20200354327A1, “COMPOUND HAVING STAT3 INHIBITORY ACTIVITY AND USE THEREOF” (CYTUS H&B CO., LTD., priority 2017, published 2020).

The target in one assay is STAT3 (Homo sapiens, UniProt P40763). Kind of assay: Western blot of the 46 Table 1 compounds in Hodgkin lymphoma cell lines L540 and HDLM-2. As to conditions: L540 and HDLM-2. It counts as cell-based. Also noted: endogenous in cells; host or cells: L540, HDLM-2, U87-MG, MDA-MB-231, further human glioblastoma and breast cancer lines. Here is the method: The human cancer cell lines used in the experiment were U87-MG (human malignant glioblastoma) and MDA-MB-231 (human malignant breast cancer) cell lines, and various kinds of human-derived blood and solid cancer cells including these human cancer cell lines were cultured as previously described (Jung J E, et al. FASEB J. 19, 1296-1298 (2005)). The human Hodgkin lymphoma cancer cell lines L540 and HLDM-2 used in the experiment were obtained from the German Collection of Microorganism and Cell Cultures (DSMZ, Germany) and cultured using RPMI 1640 medium containing 20% FBS in a 5% CO2 incubator at a temperature of 37° C.
Sequence of STAT3 (P40763 whole entry): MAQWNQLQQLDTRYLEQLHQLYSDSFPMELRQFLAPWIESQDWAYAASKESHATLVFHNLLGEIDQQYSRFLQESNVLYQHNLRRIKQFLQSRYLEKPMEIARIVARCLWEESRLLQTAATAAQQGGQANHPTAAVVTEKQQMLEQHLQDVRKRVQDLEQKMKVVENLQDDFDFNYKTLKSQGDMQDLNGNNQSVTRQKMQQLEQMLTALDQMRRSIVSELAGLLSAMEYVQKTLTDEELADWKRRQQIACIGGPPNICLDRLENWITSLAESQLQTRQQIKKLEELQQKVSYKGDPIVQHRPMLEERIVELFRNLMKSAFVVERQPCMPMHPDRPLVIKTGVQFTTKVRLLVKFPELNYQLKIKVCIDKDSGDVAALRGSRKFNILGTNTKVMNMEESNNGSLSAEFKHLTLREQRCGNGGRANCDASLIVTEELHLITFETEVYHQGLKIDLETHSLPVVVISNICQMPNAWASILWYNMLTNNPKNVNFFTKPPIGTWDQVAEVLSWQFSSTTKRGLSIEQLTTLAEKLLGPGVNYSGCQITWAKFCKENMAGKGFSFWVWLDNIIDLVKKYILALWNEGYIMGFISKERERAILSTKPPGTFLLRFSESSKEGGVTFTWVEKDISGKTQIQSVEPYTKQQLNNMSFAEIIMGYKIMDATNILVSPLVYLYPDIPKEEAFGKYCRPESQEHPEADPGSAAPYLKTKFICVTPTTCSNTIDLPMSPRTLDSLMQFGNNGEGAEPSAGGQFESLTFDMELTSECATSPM
Western blot analysis was performed (Jung J E, et al. FASEB J. 19, 1296-1298 (2005)). The cells were washed two times with PBS and suspended in the lysate (50 mM Tris-HCl, pH 7.4, 350 mM NaCl, 1% Triton X-100, 0.5% Nonidet P-40, 10% glycerol, 0.1% SDS, 1 mM EDTA, 1 mM EGTA, 1 mM Na3VO4, 1 mM PMSF, protease and phosphorylation inhibitor) and the cell membrane and nuclear membrane were crushed to lyse the cells. The insoluble protein fraction was removed by centrifugation, and the supernatant was mixed with SDS electrophoresis buffer and electrophoresis (SDS-PAGE) was performed to detect the protein with the desired antibody and to confirm the protein expression level.
Background: Immunoblotting shows a protein as a band on a membrane.
In the case of `Cl.Cl.NCCc1nc2ccccc2c(=O)[nH]1.O` [compound 1, 2-(2-aminoethyl)-4(3H)-quinazolinone dihydrochloride hydrate], the “STAT3 inhibitory efficacy, first screening” value was “judged to exert superior STAT3 inhibitory efficacy”.

With `O=S(=O)(NCCc1nc2ccccc2[nH]1)c1ccccc1` [compound 4, N-[2-(lH-benzimidazol-2-yl)ethyl]benzenesulfonamide], the “STAT3 inhibitory efficacy, first screening” value was “judged to exert superior STAT3 inhibitory efficacy”. Turning to `O=C1NCSC1=Cc1ccccc1O` [compound 5, 5-(2-hydroxybenzylidene)-l,3-thiazolidin-4-one], the “STAT3 inhibitory efficacy, first screening” value was “judged to exert superior STAT3 inhibitory efficacy”.

`O=S(=O)(NCc1nc2ccccc2[nH]1)c1ccccc1` [compound 6, N-(1H-benzimidazol-2-ylmethyl)benzenesulfonamide]: the “STAT3 inhibitory efficacy, first screening” value was “judged to exert superior STAT3 inhibitory efficacy”.

With `O=C(O)C1Cc2c([nH]c3ccccc23)C(c2ccc(O)cc2)N1` (stereo not drawn) [compound 8, l-(4-hydroxyphenyl)-2,3,4,9-tetrahydro-lH-beta-carboline-3-carboxylic acid], the “STAT3 inhibitory efficacy, first screening” value was “judged to exert superior STAT3 inhibitory efficacy”. On the same count and under the same terms, then `O=C(Nc1nc(O)nc(C=Cc2ccccc2)n1)NS(=O)(=O)c1ccccc1Cl` [compound 9, 2-chloro-N-({[4-hydroxy-6-(2-phenylvinyl)-l,3,5-triazin-2-yl]amino]carbonyl)benzenesulfonamide], with “judged to exert superior STAT3 inhibitory efficacy”; and `O=C(O)c1cccc(NS(=O)(=O)c2cccc(C(F)(F)F)c2)c1` [compound 11, 3-({[3-(trifluoromethyl)phenyl]sulfonyl}amino)benzoic acid], with “judged to exert superior STAT3 inhibitory efficacy”. The same measure, in the same setting: then `O=S(=O)(NCc1nc2ccccc2[nH]1)c1ccc(Cl)cc1` [compound 14, N-(1H-benzimidazol-2-ylmethyl)-4-chlorobenzenesulfonamide], with “judged to exert superior STAT3 inhibitory efficacy”. For `CC1CN(Cc2nc3c([nH]2)c(=O)[nH]c(=O)n3C)CC(C)O1` (stereo not shown) [compound 16, 8-[(2,6-dimethyl-4-morpholinyl)methyl]-3-methyl-3,7-dihydro-lH-purine-2,6-dione], the “STAT3 inhibitory efficacy, first screening” value was “judged to exert superior STAT3 inhibitory efficacy”.

Turning to `CC(CNCc1nc2ccccc2[nH]1)c1ccccc1` (stereo not shown) [compound 18, (1H-benzimidazol-2-ylmethyl)(2-phenylpropyl)amine], the “STAT3 inhibitory efficacy, first screening” value was “judged to exert superior STAT3 inhibitory efficacy”.

For the molecule `CCS(=O)(=O)Nc1cccc(C2=NN(S(C)(=O)=O)C(c3cccc(F)c3)C2)c1` (stereo not drawn) [compound 19, N-{3-[5-(3-fluorophenyl)-l-(methylsulfonyl)-4,5-dihydro-lH-pyrazol-3-yl]phenyl}ethanesulfonamide], the “STAT3 inhibitory efficacy, first screening” value is on record as “judged to exert superior STAT3 inhibitory efficacy”.

As for `O=S(=O)(NCc1nc2ccccc2[nH]1)c1ccc(Cl)c(Cl)c1` [compound 20, N-(lH-benzimidazol-2-ylmethyl)-3,4-dichlorobenzenesulfonamide], the “STAT3 inhibitory efficacy, first screening” value is “judged to exert superior STAT3 inhibitory efficacy”. Turning to `O=C(Nc1ccc(C(=O)N2CCNC2=O)cc1)c1cccs1` [compound 21, N-{4-[(2-oxo-l-imidazolidinyl)carbonyl]phenyl}-2-thiophenecarboxamide], the “STAT3 inhibitory efficacy, first screening” value was “judged to exert superior STAT3 inhibitory efficacy”. Consider `O=C(Nc1ccc(C(=O)N2CCNC2=O)cc1)c1ccccc1` [compound 22, N-{4-[(2-oxo-l-imidazolidinyl)carbonyl]phenyl}benzamide], for which the “STAT3 inhibitory efficacy, first screening” value is “judged to exert superior STAT3 inhibitory efficacy”.

As to `O=C(COc1ccc(Cl)cc1S(=O)(=O)NC1CC1)N1CCOCC1` [compound 23, 5-chloro-N-cyclopropyl-2-[2-(4-morpholinyl)-2-oxoethoxy]benzenesulfonamide], the “STAT3 inhibitory efficacy, first screening” value is “judged to exert superior STAT3 inhibitory efficacy”. On the same count and under the same terms, then `NC(=O)c1cc(S(=O)(=O)Nc2ccc(O)cc2)cs1` [compound 24, 4-{[(4-hydroxyphenyl)amino]sulfonyl}-2-thiophenecarboxamide], with “judged to exert superior STAT3 inhibitory efficacy”. On the same count and under the same terms, for `O=C1CN(C(=O)C=Cc2ccccc2)CCN1` [compound 27, 4-cinnamoyl-2-piperazinone] the value was “judged to exert superior STAT3 inhibitory efficacy”; for `Cc1ccccc1NC(=O)c1cccc(NS(C)(=O)=O)c1` [compound 28, N-(2-methylphenyl)-3-((methylsulfonyl)amino]benzamide], “judged to exert superior STAT3 inhibitory efficacy”.

Regarding `O=C(Nc1ccc(F)cc1)Nc1cccc(C(=O)NCc2ccccc2)c1` [compound 29, N-benzyl-3-({[(4-fluorophenyl)amino]carbonyl}amino)benzamide], the “STAT3 inhibitory efficacy, first screening” value was “judged to exert superior STAT3 inhibitory efficacy”. For `CC(C)(C)NC(=O)c1cccc(NC(=O)Nc2ccccc2)c1` [compound 30, 3-[(anilinocarbonyl)amino]-N-(tert-butyl)benzamide], the “STAT3 inhibitory efficacy, first screening” value is “judged to exert superior STAT3 inhibitory efficacy”. On the same count and under the same terms, then `Cc1ccc(S(=O)(=O)NCCc2nc3ccccc3[nH]2)cc1` [compound 31, N-[2-(1H-benzimidazol-2-yl)ethyl]-4-methylbenzenesulfonamide], with “judged to exert superior STAT3 inhibitory efficacy”. In the case of `Cc1ccc(S(=O)(=O)NCc2nc3ccccc3[nH]2)cc1` [compound 32, N-(1H-benzimidazol-2-ylmethyl)-4-methylbenzenesulfonamide], the “STAT3 inhibitory efficacy, first screening” value is listed as “judged to exert superior STAT3 inhibitory efficacy”. Same read-out and setting: then `CS(=O)(=O)Nc1cccc(C(=O)NCc2ccncc2)c1` [compound 33, 3-[(methylsulfonyl)amino]-N-(4-pyridinylmethyl)benzamide], with “judged to exert superior STAT3 inhibitory efficacy”; and `Brc1cc2c(cc1CSc1nc3cccnc3[nH]1)OCO2` [compound 34, 2-{[(6-bromo-l,3-benzodioxol-5-yl)methyl]thio}-3H-imidazo[4,5-b]pyridine], with “judged to exert superior STAT3 inhibitory efficacy”; and `O=C(O)[C@@H]1CCCN1S(=O)(=O)c1ccc2[nH]c(=O)c(=O)[nH]c2c1` [compound 35, l-[(2,3-dioxo-l,2,3,4-tetrahydro-6-quinoxalinyl)sulfonyl]proline], with “judged to exert superior STAT3 inhibitory efficacy”.

For the molecule `CCc1ccc(OC)c(S(=O)(=O)Nc2cccc(O)c2)c1` [compound 36, 5-ethyl-N-(3-hydroxyphenyl)-2-methoxybenzenesulfonamide], the “STAT3 inhibitory efficacy, first screening” value is “judged to exert superior STAT3 inhibitory efficacy”. With `OCCCNc1nc(Nc2cccc(O)c2)nc2ccccc12` [compound 37, 3-({4-[(3-hydroxypropyl)amino]-2-quinazolinyl}amino)phenol], the “STAT3 inhibitory efficacy, first screening” value is recorded as “judged to exert superior STAT3 inhibitory efficacy”.

As for `O=C(Nc1ccc(Cc2ccc(NC(=O)C(c3ccccc3)c3ccccc3)c(O)c2)cc1O)C(c1ccccc1)c1ccccc1` [compound 38, N,N′-[methylenebis(2-hydroxy-4,1-phenylene)]bis(2,2-diphenylacetamide)], the “STAT3 inhibitory efficacy, first screening” value is on record as “judged to exert superior STAT3 inhibitory efficacy”. On the same count and under the same terms, for `COc1ccccc1C(=O)Nc1ccc(C(=O)N2CCNC2=O)cc1` [compound 41, 2-methoxy-N-{4-[(2-oxo-l-imidazolidinyl)carbonyl]phenyl}benzamide] the value was “judged to exert superior STAT3 inhibitory efficacy”; for `Cc1[nH]c2ccc(-c3n[nH]c(=S)n3C)cc2c1C` [compound 42, 5-(2,3-dimethyl-lH-indol-5-yl)-4-methyl-2,4-dihydro-3H-l,2,4-triazole-3-thione], “judged to exert superior STAT3 inhibitory efficacy”. Still for that read-out and setting: then `O=C(Nc1cccnc1)c1cccc(NS(=O)(=O)c2ccccc2)c1` [compound 43, 3-[(phenylsulfonyl)amino]-N-3-pyridinylbenzamide], with “judged to exert superior STAT3 inhibitory efficacy”; and `CS(=O)(=O)Nc1cccc(C(=O)Nc2ccccc2C(=O)NCc2cccnc2)c1` [compound 44, 2-({3-[(methylsulfonyl)amino]benzoyl]amino)-N-(3-pyridinylmethyl)benzamide], with “judged to exert superior STAT3 inhibitory efficacy”.

The same assay, now with this note: L540 and HDLM-2, 50 μM.
Regarding `OCCCNc1nc(Nc2cccc(O)c2)nc2ccccc12` [compound 37, 3-({4-[(3-hydroxypropyl)amino]-2-quinazolinyl}amino)phenol], the “STAT3 inhibitory efficacy, secondary screening” value is reported as “judged to exert superior STAT3 inhibitory efficacy”.

The same assay, now with this note: L540 and HDLM-2, various concentrations.
With `OCCCNc1nc(Nc2cccc(O)c2)nc2ccccc12` [compound 37, 3-({4-[(3-hydroxypropyl)amino]-2-quinazolinyl}amino)phenol], the “phosphorylation of STAT tyrosine 705” value is “significantly inhibited the phosphorylation of STATdml tyrosine 705 in a concentration-dependent manner”.
